In publication PMC11460631, “Inhibition of transient receptor potential vanilloid 3 channels by antimalarial hydroxychloroquine alleviates TRPV3-dependent dermatitis” (The Journal of Biological Chemistry, 2024):

Biological target: T1, TRPV3 L670 alanine mutation (Homo sapiens, UniProt Q8NET8, L670A)
T1 construct: YFP or GFP; expressed in transfected cells; host or cells: HEK293T
T1 sequence (Q8NET8 1-790 L670A): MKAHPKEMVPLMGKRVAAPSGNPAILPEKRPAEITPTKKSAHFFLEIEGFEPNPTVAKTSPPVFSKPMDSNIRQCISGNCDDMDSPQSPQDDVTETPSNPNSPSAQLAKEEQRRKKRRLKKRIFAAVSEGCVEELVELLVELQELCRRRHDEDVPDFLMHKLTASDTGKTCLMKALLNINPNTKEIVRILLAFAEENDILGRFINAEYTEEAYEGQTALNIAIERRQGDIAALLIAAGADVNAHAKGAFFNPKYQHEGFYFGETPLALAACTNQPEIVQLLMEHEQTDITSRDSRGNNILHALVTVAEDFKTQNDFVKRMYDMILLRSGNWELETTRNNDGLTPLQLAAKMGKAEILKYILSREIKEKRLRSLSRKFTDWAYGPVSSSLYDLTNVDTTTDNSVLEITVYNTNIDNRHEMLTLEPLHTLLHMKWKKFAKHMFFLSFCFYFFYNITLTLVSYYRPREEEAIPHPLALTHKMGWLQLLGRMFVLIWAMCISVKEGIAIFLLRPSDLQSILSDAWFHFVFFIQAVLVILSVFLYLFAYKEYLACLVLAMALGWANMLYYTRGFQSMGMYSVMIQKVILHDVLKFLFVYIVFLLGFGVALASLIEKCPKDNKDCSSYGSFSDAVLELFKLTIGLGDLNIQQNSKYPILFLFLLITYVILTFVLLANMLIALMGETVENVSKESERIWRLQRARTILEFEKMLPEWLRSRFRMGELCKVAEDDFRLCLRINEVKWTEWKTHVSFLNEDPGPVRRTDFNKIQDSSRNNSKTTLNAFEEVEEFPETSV
Assay: Whole-cell recording of TRPV3 L670 alanine mutant
Type: cell-based
Conditions: 1 mM 2-APB, ± 80 mV
From the text: As we mentioned above, HCQ may act as a pore blocker of TRPV3. To probe the binding configuration of HCQ to TRPV3, we carried out molecular docking using Rosetta suite (https://rosettacommons.org) ([21]) and validated the docking models with point mutations in TRPV3 (Fig. 4A). […] Furthermore, when we introduced L670A to L591A mutant, we also observed a left shift on the concentration–response curve on this double mutant as compared to L591A mutant (Fig. 4H).
Figure 4 Residues of the pore domain are critical for HCQ inhibition on TRPV3.A, left panel, docking model of HCQ to the pore domain of TRPV3 structure (6uw4). Right panels, top view and side view of the HCQ-binding pocket. B-J, representative whole-cell recording of TRPV3 and mutants in response to 1 mM 2-APB, the mixture of 1 mM 2-APB and concentration gradients of HCQ with the holding potential of ± 80 mV. K, concentration–response curves of HCQ in WT TRPV3 and mutants (n = 3–5 cells). L, quantification of the inhibitory ratio of HCQ (100 μM) on WT, L591A, and N671Q. […]
All data from whole-cell recordings were analyzed in Igor Pro (WaveMetrics). IC50 values were determined by fitting the Hill equation to concentration-response relationships. […]

## CCN(CCO)CCCC(C)Nc1ccnc2cc(Cl)ccc12 (stereo not shown) [HCQ, hydroxychloroquine]
  IC50: 170 ± 40 nM
